As usually defined, the CC50 is the concentration that lowers cell viability or growth by half.

Active and inactive are the calls of the source.

IC50, EC50 and CC50 data for ten compounds are collected here from ChEMBL document CHEMBL1201862, “PubChem BioAssay data set” (2004).

The nature of assay [1]: protection from phage-mediated lysis, alamar blue read-out – E. coli UTI89, K1F phage, bacterial capsule biogenesis inhibitors (AID 488966). In kind it is functional. In general terms: Alamar Blue is a resazurin reagent that responds to reducing activity.
The target of assay [2] is T1, Voltage-dependent T-type calcium channel subunit alpha-1H (Homo sapiens, UniProt O95180). In kind it is functional.
T1 sequence (O95180 whole entry): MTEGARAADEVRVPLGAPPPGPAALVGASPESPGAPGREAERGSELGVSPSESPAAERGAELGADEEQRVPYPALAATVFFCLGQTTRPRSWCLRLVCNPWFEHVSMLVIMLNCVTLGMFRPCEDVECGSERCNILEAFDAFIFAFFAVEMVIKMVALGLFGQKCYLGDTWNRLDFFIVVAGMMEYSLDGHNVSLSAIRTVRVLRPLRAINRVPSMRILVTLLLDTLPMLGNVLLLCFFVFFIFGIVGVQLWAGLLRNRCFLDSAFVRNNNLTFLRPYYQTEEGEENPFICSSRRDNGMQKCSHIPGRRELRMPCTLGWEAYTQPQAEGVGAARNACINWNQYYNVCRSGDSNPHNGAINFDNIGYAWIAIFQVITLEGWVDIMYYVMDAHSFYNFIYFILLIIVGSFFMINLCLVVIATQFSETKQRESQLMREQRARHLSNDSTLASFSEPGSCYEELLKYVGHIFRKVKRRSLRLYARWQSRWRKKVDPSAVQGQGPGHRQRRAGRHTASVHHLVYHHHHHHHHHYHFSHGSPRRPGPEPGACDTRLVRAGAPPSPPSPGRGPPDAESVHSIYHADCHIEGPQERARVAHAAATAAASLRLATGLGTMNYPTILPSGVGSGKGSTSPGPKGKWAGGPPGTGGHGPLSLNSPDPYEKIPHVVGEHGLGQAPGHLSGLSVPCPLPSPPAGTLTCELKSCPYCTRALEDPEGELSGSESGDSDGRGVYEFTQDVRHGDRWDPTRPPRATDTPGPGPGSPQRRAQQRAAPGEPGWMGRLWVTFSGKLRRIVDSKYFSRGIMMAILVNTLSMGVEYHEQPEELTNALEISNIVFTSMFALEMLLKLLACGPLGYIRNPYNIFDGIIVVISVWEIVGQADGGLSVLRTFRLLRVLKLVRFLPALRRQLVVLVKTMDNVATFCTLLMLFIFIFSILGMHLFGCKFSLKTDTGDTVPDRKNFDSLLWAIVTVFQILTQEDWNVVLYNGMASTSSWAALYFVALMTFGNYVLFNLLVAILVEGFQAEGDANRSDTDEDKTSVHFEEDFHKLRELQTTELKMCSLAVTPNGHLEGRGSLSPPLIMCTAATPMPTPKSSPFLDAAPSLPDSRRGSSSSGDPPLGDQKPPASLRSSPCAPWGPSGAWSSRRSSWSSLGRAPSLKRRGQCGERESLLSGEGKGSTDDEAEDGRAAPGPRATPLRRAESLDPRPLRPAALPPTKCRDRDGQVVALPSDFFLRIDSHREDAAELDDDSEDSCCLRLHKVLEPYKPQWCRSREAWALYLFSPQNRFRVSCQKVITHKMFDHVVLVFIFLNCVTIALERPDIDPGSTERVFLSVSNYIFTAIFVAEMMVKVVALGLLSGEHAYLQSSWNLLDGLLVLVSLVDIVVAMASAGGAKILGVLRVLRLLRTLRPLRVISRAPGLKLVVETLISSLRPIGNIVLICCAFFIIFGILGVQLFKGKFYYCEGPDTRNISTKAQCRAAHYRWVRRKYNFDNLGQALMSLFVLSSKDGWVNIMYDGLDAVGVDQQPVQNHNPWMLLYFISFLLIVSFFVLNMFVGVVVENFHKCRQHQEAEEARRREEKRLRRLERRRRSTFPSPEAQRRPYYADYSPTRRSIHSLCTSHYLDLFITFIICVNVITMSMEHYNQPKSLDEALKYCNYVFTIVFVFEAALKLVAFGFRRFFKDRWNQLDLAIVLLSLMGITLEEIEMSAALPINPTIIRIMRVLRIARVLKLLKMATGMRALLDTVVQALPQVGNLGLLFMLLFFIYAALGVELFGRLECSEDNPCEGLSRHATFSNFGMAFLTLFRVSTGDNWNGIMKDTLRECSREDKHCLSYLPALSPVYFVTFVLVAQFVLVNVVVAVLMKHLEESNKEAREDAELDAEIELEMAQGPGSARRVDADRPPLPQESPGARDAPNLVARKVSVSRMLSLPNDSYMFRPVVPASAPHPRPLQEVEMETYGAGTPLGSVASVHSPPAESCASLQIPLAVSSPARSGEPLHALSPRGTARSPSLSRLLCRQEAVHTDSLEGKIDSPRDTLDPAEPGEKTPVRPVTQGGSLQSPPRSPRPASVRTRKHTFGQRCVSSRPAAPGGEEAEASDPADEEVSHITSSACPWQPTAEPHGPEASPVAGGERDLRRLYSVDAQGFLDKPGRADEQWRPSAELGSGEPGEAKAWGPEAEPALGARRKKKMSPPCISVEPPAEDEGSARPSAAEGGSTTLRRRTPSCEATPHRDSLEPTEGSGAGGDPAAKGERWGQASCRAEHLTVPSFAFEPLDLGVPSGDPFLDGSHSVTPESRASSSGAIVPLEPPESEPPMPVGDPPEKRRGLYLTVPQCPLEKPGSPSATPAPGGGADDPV
For assay [3], the target named is T2, Corticotropin-releasing factor receptor 2/Corticotropin-releasing factor-binding protein (Homo sapiens, UniProt P24387+Q13324).
T2 sequence (Q13324 whole entry): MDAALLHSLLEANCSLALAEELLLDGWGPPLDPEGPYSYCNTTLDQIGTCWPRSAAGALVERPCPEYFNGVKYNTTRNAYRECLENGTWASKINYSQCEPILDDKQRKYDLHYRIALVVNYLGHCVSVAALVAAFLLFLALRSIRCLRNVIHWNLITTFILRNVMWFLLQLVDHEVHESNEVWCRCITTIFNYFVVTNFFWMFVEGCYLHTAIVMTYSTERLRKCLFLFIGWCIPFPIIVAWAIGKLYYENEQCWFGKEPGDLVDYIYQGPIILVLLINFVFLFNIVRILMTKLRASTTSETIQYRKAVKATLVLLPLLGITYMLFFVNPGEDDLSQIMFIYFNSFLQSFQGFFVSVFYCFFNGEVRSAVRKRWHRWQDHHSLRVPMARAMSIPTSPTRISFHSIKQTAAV
T2 sequence (P24387 whole entry): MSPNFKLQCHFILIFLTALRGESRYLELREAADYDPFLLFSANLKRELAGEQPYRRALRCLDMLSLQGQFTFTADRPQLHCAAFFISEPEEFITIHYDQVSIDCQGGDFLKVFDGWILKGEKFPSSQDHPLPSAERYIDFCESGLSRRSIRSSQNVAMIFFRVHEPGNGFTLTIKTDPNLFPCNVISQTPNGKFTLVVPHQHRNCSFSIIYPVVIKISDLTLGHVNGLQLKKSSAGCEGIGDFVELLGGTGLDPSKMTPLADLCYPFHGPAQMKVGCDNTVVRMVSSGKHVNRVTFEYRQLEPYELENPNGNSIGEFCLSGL
Description: Dose Response confirmation of uHTS hits for small molecule antagonists of the CRF-binding protein and CRF-R2 receptor complex. The following applies: read-out: IC50_Mean. In kind it is functional.

The target in assay [4] is T2, Corticotropin-releasing factor receptor 2/Corticotropin-releasing factor-binding protein. Description: activators of CRF receptor 2 with binding protein – uHTS hits, confirmation (AID 602473). As to conditions: read-out: EC50_Mean. The assay is classed as functional.
The nature of assay [5]: THP-1 cell cytotoxicity, dose response, cytotoxicity control for non-replicating M. tuberculosis project (AID 489025). In kind it is functional.
The nature of assay [6]: HepG2 cell cytotoxicity, dose response, cytotoxicity control for non-replicating M. tuberculosis project (AID 489018). The assay is classed as functional. As to conditions: Mycobacterium tuberculosis.
The next assay is described as follows: cells. In kind it is functional.
A further assay addresses Protein Rev (Human immunodeficiency virus type 1 group M subtype B (isolate HXB2)(HIV-1), UniProt P04618). Description: blockers of HIV Rev/RRE RNA complex – biochemical, fluorescence polarization, HIV-1, dose response (AID 434976). More on the design: species or system Human immunodeficiency virus 1. A general note: Polarisation of emitted light reports the rotation of a fluorescent probe.

The target in assay [7] is Female germline-specific tumor suppressor gld-1 (Caenorhabditis elegans, UniProt Q17339). The experiment in a line: blockers of GLD-1/TGE RNA complex formation – biochemical, fluorescence polarization, C. elegans, dose response (AID 2802).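 Note: fluorescence polarization of labeled TGE RNA bound by purified gld-1 protein.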
In assay [8] the target is G-protein coupled receptor 55 (Homo sapiens, UniProt Q9Y2T6). The experiment in a line: inhibition of LPI-stimulated GPR55 beta-arrestin translocation – imaging, U2OS, beta-arrestin-GFP, LPI agonist, primary screen (AID 2013).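 Note: antagonist potency measured as reduced agonist-driven arrestin aggregation.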 In kind it is functional.
Chain of G-protein coupled receptor 55 (Q9Y2T6 whole entry, the tested form may be a part): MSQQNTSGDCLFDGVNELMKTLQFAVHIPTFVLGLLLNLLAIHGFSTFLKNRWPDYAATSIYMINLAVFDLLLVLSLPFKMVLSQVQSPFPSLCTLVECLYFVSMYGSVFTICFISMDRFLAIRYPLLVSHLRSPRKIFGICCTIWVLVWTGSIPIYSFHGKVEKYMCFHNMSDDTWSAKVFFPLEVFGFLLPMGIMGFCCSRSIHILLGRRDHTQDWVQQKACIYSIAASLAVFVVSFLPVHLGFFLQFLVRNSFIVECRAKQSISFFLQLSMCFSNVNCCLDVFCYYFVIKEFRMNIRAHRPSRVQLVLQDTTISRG
Assay [9] deals with T3, Nucleotide-binding oligomerization domain-containing protein 2 (Homo sapiens, UniProt Q9HC29). The experiment in a line: inhibition of NOD2-driven NF-kB reporter – cell-based, luminescence, uHTS, HEK293 (AID 1566). In kind it is functional.
T3 sequence (Q9HC29 whole entry, the tested form may be a part): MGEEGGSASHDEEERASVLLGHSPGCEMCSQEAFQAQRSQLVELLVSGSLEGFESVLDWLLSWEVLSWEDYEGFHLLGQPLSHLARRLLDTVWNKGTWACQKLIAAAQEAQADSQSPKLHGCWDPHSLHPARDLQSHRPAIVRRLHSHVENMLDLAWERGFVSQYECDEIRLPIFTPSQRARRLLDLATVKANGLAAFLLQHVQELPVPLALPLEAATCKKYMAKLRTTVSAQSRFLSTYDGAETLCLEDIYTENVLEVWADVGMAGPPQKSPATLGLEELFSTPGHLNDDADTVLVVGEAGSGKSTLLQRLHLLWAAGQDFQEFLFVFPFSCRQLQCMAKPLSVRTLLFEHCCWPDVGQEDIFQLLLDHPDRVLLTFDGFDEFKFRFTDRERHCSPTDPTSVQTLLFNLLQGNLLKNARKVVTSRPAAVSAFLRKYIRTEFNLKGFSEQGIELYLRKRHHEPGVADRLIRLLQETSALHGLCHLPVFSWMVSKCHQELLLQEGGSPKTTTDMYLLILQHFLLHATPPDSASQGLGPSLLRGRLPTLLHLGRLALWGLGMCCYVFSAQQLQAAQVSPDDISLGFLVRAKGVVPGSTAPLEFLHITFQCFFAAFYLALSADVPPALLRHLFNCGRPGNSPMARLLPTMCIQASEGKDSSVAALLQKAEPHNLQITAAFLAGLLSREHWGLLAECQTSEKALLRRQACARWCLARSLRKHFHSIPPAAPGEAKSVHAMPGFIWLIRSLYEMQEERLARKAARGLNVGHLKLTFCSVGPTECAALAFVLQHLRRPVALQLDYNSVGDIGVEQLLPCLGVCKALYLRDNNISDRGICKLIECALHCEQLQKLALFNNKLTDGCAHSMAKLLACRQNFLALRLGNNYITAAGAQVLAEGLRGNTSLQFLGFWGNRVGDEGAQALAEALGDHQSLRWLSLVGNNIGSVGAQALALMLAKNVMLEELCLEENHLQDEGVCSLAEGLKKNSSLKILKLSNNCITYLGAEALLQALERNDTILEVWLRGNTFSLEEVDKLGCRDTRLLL
The target of another assay is Tumor necrosis factor (Homo sapiens, UniProt P01375). The experiment in a line: analog potency on TNFa NF-kB signaling – cell-based, revised, SAR follow-up (AID 2337). In kind it is functional.
The target in assay [10] is T4, Nucleotide-binding oligomerization domain-containing protein 1 (Homo sapiens, UniProt Q9Y239).
T4 sequence (Q9Y239 whole entry): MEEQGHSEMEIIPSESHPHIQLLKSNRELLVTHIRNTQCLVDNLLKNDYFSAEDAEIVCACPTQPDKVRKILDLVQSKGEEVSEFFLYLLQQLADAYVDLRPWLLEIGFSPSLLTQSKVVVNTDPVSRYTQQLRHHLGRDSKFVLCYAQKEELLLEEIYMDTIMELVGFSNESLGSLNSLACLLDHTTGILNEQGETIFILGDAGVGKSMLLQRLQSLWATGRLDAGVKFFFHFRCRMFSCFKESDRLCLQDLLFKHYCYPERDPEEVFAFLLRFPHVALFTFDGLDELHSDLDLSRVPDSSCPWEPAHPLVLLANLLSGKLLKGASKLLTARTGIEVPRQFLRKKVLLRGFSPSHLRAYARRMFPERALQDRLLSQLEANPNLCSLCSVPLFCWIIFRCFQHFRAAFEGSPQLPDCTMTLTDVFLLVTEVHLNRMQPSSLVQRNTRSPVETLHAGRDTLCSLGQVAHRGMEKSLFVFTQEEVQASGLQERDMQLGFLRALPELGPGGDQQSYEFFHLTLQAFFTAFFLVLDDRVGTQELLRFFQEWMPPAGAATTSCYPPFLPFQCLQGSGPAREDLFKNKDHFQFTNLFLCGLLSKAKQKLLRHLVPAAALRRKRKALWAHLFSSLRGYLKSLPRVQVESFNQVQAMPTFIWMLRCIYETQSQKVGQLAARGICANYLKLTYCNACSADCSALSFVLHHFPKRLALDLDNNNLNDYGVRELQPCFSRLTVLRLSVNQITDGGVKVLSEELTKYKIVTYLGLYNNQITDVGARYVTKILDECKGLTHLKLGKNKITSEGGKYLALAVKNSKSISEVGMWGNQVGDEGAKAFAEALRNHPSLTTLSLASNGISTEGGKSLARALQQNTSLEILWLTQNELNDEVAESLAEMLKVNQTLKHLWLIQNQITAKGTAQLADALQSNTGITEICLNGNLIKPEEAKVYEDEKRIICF
The experiment in a line: blockers of NOD1 pathway activity – revised, SAR follow-up (AID 2333). In kind it is functional.

Assay [11] deals with T3, Nucleotide-binding oligomerization domain-containing protein 2. Description: PubChem AID 2334. In kind it is functional.
For assay [12], the target named is T5, Voltage-gated N-type calcium channel alpha-1B subunit/Amyloid beta A4 precursor protein-binding family A member 1 (Homo sapiens, UniProt Q00975+Q02410). The experiment in a line: disruptors of Mint-PDZ/N-type channel peptide interaction – biochemical, HTRF, set 2, SAR follow-up (AID 434980). The assay is classed as functional. (In TR-FRET formats the signal depends on donor and acceptor labels being close together.)

Assay [13] addresses T5, Voltage-gated N-type calcium channel alpha-1B subunit/Amyloid beta A4 precursor protein-binding family A member 1. Description: disruptors of Mint-PDZ/N-type channel peptide interaction – biochemical, HTRF, SAR follow-up (AID 2489). The assay is classed as functional.
The target in assay [14] is Intestinal-type alkaline phosphatase (Homo sapiens, UniProt P09923). Description: Dose Response confirmation of uHTS hits from a small molecule inhibitors of human intestinal alkaline phosphatase via a luminescent assay. [Related pubchem assays (depositor defined):AID2544, AID2574]. In kind it is functional.
The target in assay [15] is T1, Voltage-dependent T-type calcium channel subunit alpha-1H. The experiment in a line: human CACNA1H calcium influx blockade – cell-based, synthetic library set 1, calcium flux (AID 493022). In kind it is functional.
Assay [16] has as its target T6, Mu-type opioid receptor (Homo sapiens, UniProt P35372). The experiment in a line: mu opioid receptor activators, image-based, SAR follow-up (AID 2352). In kind it is functional.
Assay [17] deals with T7, Delta-type opioid receptor (Homo sapiens, UniProt P41143). The experiment in a line: DOR agonists, SAR follow-up, image-based (AID 2370). The assay is classed as functional.
T7 sequence (P41143 whole entry): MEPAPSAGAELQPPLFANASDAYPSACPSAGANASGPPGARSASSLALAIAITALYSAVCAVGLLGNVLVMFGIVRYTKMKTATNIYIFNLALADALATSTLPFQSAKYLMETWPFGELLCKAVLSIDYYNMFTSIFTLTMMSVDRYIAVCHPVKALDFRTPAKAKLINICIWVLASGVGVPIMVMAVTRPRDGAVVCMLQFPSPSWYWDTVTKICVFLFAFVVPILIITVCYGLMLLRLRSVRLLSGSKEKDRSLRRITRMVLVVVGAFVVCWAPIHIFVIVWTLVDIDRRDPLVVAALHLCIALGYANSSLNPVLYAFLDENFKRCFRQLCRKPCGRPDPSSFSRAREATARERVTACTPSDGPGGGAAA
Assay [18] addresses T8, Kappa-type opioid receptor (Homo sapiens, UniProt P41145). The experiment in a line: kappa opioid receptor blockers, image-based, SAR follow-up (AID 2348). The assay is classed as functional.
In assay [19] the target is T6, Mu-type opioid receptor. The experiment in a line: mu opioid receptor blockers – image-based, SAR follow-up (AID 2420).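 Note: compounds added before stimulation of receptor with agonist DAMGO.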 The assay is classed as functional.
The target in assay [20] is T8, Kappa-type opioid receptor. Description: kappa opioid receptor activation potency – imaging, image-based, SAR follow-up (AID 2359). In kind it is functional.
The target of assay [21] is T7, Delta-type opioid receptor. Description: delta opioid receptor blockers – image-based, SAR follow-up (AID 2357). In kind it is functional.
The target of assay [22] is T8, Kappa-type opioid receptor. Description: kappa opioid receptor blockers, cell-based, luminescence, beta-arrestin, SAR follow-up (AID 2285). The assay is classed as functional.

T8 sequence (P41145 whole entry): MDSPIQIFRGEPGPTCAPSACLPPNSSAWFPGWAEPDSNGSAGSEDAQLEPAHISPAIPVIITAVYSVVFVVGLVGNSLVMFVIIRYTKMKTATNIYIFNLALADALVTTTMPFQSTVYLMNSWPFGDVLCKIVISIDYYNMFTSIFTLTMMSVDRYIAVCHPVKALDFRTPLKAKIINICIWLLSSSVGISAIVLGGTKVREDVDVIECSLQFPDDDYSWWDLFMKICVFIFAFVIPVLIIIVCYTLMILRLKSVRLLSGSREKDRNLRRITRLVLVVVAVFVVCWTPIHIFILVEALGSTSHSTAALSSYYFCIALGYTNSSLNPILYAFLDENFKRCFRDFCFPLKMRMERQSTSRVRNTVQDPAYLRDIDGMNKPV
T6 sequence (P35372 whole entry): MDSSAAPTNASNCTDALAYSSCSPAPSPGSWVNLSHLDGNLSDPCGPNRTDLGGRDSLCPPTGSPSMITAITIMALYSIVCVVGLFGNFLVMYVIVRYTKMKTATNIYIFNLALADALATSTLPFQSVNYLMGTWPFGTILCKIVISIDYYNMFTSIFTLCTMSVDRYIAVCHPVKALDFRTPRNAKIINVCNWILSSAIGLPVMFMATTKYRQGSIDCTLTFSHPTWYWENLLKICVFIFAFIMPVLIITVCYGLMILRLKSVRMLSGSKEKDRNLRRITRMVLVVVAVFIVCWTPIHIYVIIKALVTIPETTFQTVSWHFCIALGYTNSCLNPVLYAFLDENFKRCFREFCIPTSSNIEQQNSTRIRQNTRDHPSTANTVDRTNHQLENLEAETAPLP
Chain of Protein Rev (P04618 whole entry): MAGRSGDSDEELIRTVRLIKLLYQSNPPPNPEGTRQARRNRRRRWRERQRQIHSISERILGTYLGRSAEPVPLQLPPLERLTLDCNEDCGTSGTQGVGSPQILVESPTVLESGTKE

For the compound `CCOc1ccc(NC(=O)C2CCC(C)(C(=O)O)C2(C)C)cc1` (stereo not given), the IC50 in [1] is > 300 µM (active).
As for `COc1ccc(C(c2nnnn2Cc2ccccc2)N2CCN(c3ccccc3)CC2)cc1` (stereo not given), the EC50 was 3.34 µM (active) in [2] and > 53 µM (inactive) in assay [4]. Also, the IC50 in assay [3] was > 47.1 µM (inactive).
Regarding `Cc1ccc(-n2cc(CNCCc3cscn3)c(-c3ccc(F)cc3)n2)cc1`, the CC50 in assay [5] is 23.1 µM (active); in assay [6], 16.5 µM (active). The IC50 in “cells” was 12.7 µM (active).
Turning to `CCN(CC)S(=O)(=O)c1ccc(N2CCCC2)c(NS(=O)(=O)c2ccc(F)cc2)c1`, the results for the IC50 (against Protein Rev; in [7]) were > 75.4 µM (not active) and 4.04 µM (active), respectively.
As for `Nc1nc(C23CC4CCC(CC(C4)C2)C3)cs1`, in assay [8], the IC50 is 7.48 µM (active).
Take `Cc1nn(-c2ccccc2)c2nc(C(Cl)(Cl)Cl)[nH]c(=O)c12`: in assay [9], the EC50 is 10.5 µM (active). The IC50 on Tumor necrosis factor is 6.62 µM (active); in assay [10], 4.5 µM (active); in assay [11], 5.9 µM (active).
As to `CC12C=CC(C)(O1)C1C(=O)N(c3ccccc3)C(=O)C12` (stereo not given), the results for the IC50 in assay [12] and in assay [13] were 10.5 µM (active) and 11.7 µM (active), respectively.
As for `c1ccc(-c2nnc(CN3CCC4(CC3)OCCO4)o2)cc1`, the IC50 in [14] is > 100 µM (inactive).
For `O=C(COc1ccc(F)cc1)Nc1nnc(-c2ccc3c(c2)CCCC3)o1`, in assay [15], the EC50 was 2.1 µM (active).
Turning to `Cc1ccc(-n2[nH]c(C)c(C=Nc3ccc(Cl)c4cccnc34)c2=O)cc1`, the EC50 at Mu-type opioid receptor [16] is 2.73 µM (active); in assay [17], 14.8 µM (inactive); in assay [20], 3.85 µM (active). For the same compound, the IC50 in assay [18] was > 32 µM (inactive); at Mu-type opioid receptor [19] it was > 32 µM (inactive); in [21], > 32 µM (inactive); in assay [22], > 10 µM (inactive).
